Experimental data from ChEMBL document CHEMBL1201862, “PubChem BioAssay data set” (2004).
Active and inactive are the calls of the source.

Key:
SUMO-activating enzyme [1] = target: T1, SUMO-activating enzyme (Homo sapiens, UniProt Q9UBT2); assay: blockers of SAE1/SAE2–UBC9 SUMO transfer – biochemical, HTRF, uHTS, primary screen (AID 2006); type: protein-complex assay
[2] = target: T2, Sentrin-specific protease 8 (Homo sapiens, UniProt Q96LD8); type: functional
T2 sequence (Q96LD8 whole entry): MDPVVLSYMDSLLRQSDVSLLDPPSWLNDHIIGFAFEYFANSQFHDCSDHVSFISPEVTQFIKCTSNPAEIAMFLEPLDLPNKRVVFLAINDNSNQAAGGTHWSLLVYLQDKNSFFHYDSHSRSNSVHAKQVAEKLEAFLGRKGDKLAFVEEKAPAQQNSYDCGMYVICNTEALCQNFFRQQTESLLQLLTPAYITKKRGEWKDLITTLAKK

SUMO-activating enzyme [3] = target: T1, SUMO-activating enzyme; assay: blockers of UBC9-mediated SUMO conjugation – biochemical, AlphaScreen, SUMOylation inhibitor project, confirmation (AID 2018); type: functional
[4] = target: T2, Sentrin-specific protease 8; type: functional; remark: listed apart in the source
Melanocortin receptor 4 = Melanocortin receptor 4 (Homo sapiens, UniProt P32245); assay: inhibitors of MC4R cAMP signaling – cell-based, TR-FRET, biased antagonists, dose response (AID 602298); type: functional;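 also: antagonist potency against agonist-stimulated cAMP production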
[5] = cAMP pathway inhibition in counterscreen cell line – TR-FRET cAMP detection, counter-screen for MC4R biased antagonist project, dose response (AID 602305); type: functional, cell-based;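 also: U2OS cells stimulated with forskolin near its EC80 as the cAMP inducer; potency is for inhibition of forskolin-stimulated cAMP signaling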
[6] = NIH3T3 cell viability loss – ATP luminescence, mouse fibroblasts, counter-screen, dose response (AID 2010); type: functional, cell-based;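 also: cells exposed to compound for about 90 hours before reading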
Streptococcus = assay: GAS UMAA2166 growth inhibition – luminescence, BacTiterGlo, counter-screen for streptokinase expression inhibitor project, dose response (AID 1915); type: functional, organism-based;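 also: potency for reduction of bacterial viability or growth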
Streptokinase A = target: T3, Streptokinase A (Streptococcus pyogenes serotype M1, UniProt P10520); assay: viability-normalized secreted streptokinase activity reduction – plasminogen activation absorbance, OD405, dose response (AID 1914); type: functional, Streptococcus pyogenes M1 GAS;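 also: secreted streptokinase activity via plasminogen activation per viability signal from cell pellet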
T3 sequence (P10520 whole entry): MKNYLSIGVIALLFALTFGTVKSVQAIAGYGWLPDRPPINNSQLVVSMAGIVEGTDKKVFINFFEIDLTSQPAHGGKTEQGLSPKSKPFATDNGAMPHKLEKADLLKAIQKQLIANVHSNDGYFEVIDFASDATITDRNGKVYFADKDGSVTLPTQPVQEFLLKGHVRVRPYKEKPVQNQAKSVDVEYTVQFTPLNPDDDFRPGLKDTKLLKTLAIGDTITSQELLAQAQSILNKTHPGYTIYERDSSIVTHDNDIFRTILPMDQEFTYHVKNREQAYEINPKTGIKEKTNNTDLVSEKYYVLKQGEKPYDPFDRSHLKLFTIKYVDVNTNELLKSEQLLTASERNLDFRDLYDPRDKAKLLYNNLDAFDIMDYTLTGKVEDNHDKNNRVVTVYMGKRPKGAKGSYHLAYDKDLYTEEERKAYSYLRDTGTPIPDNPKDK

[7] = target: T4, E3 ubiquitin-protein ligase XIAP (Homo sapiens, UniProt P98170); assay: small molecules displacing peptide from XIAP – biochemical, IAP family, fluorescence polarization (AID 1018); type: functional
[8] = Trypanosoma cruzi growth suppression in host cells – NIH3T3 host cells, beta-gal luminescence, confirmation (AID 2044); type: functional, cell-based;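 also: intracellular parasites grown in NIH/3T3 mouse fibroblasts as host cells; luminescent beta-galactosidase reporter signal from transgenic T. cruzi replicating inside host cells; inhibitors lower the luminescence signal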
[9] = general cell-killing toxicity readout – plate reader, dry powder samples, cytotoxicity control for PAX8 inhibitor project, dose response (AID 743021); type: functional, cell-based
[10] = target: T4, E3 ubiquitin-protein ligase XIAP; assay: Counter Screen using XIAP-Bir3 for Chemical Antagonists of Bir1/2 domains of IAP-family anti-apoptotic proteins. [Related pubchem assays (depositor defined):AID1018, AID1449, AID1514, AID1638, AID1749, AID1750, AID488957, AID488963]
[11] = test system: Streptococcus sp. 'group A'; assay: Streptococcus pyogenes SK(-)GAS viability under kanamycin – luminescence, BacTiterGlo, confirmation, counter-screen for streptokinase expression inhibitor project, dose response (AID 1900); type: functional, organism-based
Paired box protein Pax-8 = Paired box protein Pax-8 (Homo sapiens, UniProt Q06710); assay: PAX8 transcriptional activity inhibition in RMG-I – RMG-I cells, luciferase, cherry-pick, dose response (AID 687027); type: functional, cell-based;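 also: luciferase reporter driven by Pax8 target thyroperoxidase promoter measured by SteadyGlo luminescence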
[12] = target: Ras and Rab interactor 1/Tyrosine-protein kinase ABL1 (Homo sapiens, UniProt P00519+Q13671); type: functional;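 also: biochemical TR-FRET dose-response test measuring inhibition of binding between Rin1 and Abl proteins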
[13] = mouse fibroblast viability loss – cell-based, cherry-pick samples, set 2, cytotoxicity control for T. cruzi growth inhibitor project, dose response (AID 651817); type: functional; details: NIH3T3
[14] = target: T5, Probable nicotinate-nucleotide adenylyltransferase (Staphylococcus aureus (strain N315), UniProt P65502); type: functional, Staphylococcus aureus subsp. aureus N315; details: read-out: IC50_Mean;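 as to IC50 Mean: confirmatory dose-response retesting of NadD inhibitor hits first found in an ultra-high-throughput screen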
Cytochrome P450 1A2 = target: T6, Cytochrome P450 1A2 (Homo sapiens, UniProt P05177);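 also: PubChem cytochrome P450 panel assay, CYP1A2 panel member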
T6 sequence (P05177 whole entry): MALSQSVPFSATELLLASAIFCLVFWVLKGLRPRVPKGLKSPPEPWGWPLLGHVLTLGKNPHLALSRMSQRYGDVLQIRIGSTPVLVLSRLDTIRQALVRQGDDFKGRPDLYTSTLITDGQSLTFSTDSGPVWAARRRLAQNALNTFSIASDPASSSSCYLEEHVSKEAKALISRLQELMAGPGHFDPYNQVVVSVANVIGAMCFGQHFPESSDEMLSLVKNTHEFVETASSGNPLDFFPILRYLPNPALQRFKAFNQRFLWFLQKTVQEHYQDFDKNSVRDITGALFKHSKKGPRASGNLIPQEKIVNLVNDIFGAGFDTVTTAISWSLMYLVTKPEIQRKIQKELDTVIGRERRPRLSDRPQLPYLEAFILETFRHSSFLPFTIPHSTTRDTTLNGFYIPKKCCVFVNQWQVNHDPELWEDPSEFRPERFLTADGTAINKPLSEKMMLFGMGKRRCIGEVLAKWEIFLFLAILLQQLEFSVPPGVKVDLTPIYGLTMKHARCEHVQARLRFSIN

[15] = target: T5, Probable nicotinate-nucleotide adenylyltransferase; type: functional, Staphylococcus aureus subsp. aureus N315
[16] = microbe, parasite or virus in culture; type: functional; details: Mycobacterium tuberculosis
[17] = target: SWI/SNF-related matrix-associated actin-dependent regulator of chromatin subfamily A member 2 (Homo sapiens, UniProt P51531); assay: Luminescence-based cell-based high throughput dose response assay to identify activators of the function of SWI/SNF related, matrix associated, actin dependent regulator of chromatin, subfamily a, member 2 (SMARCA2, BRM).; type: functional
[18] = target: T7, Microphthalmia-associated transcription factor (Homo sapiens, UniProt O75030); assay: reducers of TRPM1 reporter luminescence, concentration series – cell-based, SK-MEL-5, cherry-picked, set 3, MITF inhibitor project, dose response (AID 493073); type: functional;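 also: SK-MEL-5 melanoma cells with luciferase driven by the MITF target TRPM1 promoter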
T7 sequence (O75030 whole entry): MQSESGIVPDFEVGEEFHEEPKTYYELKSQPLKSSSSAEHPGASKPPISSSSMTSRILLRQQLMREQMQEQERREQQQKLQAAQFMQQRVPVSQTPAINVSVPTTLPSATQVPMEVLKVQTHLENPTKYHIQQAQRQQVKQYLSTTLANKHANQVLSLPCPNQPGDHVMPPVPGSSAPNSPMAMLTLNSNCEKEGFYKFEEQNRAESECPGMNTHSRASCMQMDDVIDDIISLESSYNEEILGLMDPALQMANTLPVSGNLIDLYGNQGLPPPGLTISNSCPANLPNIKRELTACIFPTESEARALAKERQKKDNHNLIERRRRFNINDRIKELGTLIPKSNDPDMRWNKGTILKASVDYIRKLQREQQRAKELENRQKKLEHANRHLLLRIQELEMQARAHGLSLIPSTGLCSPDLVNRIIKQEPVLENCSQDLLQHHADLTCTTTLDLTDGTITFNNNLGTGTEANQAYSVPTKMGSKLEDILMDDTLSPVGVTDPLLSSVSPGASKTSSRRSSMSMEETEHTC

[19] = target: Botulinum neurotoxin type F (Clostridium botulinum, UniProt P30996); assay: High-throughput multiplex microsphere dose response for inhibitors of toxin protease, specifically Botulinum neurotoxin light chain F protease, compounds from Cherry Pick 02.; type: functional; details: read-out: EC50_MICROM
Chain of Botulinum neurotoxin type F (P30996 1-436 limits assumed): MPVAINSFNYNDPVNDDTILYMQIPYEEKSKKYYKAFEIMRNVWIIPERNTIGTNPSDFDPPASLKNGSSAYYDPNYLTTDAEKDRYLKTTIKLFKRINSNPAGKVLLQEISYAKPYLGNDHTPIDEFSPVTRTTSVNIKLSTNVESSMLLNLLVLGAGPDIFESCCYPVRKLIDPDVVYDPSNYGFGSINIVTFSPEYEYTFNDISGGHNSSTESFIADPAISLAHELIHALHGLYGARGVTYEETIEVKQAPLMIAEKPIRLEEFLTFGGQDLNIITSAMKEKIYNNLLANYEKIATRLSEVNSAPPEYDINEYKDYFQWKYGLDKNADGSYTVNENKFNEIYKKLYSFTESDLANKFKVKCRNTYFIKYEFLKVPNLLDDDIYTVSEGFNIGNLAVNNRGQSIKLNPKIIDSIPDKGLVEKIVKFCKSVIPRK

T1 sequence (Q9UBE0 whole entry): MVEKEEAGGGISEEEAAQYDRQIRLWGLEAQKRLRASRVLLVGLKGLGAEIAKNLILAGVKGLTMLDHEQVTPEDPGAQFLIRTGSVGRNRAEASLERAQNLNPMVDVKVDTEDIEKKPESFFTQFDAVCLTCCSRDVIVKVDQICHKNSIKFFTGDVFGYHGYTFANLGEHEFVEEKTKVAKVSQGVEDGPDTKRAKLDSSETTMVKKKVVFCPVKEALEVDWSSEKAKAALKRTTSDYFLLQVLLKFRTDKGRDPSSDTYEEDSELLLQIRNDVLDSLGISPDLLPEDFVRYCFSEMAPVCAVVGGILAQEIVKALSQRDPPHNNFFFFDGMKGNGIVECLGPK
T1 sequence (Q9UBT2 whole entry): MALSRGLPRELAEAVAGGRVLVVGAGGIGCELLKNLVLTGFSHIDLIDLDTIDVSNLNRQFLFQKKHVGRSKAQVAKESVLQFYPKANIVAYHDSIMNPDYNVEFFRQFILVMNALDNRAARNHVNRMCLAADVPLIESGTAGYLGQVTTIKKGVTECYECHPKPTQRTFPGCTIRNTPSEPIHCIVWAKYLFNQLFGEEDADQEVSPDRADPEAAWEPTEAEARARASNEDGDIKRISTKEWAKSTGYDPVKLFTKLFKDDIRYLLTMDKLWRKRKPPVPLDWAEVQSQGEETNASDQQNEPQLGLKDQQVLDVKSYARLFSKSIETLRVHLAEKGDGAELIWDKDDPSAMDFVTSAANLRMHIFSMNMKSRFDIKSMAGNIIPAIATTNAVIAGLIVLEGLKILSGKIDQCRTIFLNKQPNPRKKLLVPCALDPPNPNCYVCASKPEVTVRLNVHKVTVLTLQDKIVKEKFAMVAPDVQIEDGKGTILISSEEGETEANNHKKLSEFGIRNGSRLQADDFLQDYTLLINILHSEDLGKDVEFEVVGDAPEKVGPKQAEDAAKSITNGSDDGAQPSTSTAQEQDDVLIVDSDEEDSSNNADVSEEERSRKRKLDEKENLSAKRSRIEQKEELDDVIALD
T4 sequence (P98170 whole entry): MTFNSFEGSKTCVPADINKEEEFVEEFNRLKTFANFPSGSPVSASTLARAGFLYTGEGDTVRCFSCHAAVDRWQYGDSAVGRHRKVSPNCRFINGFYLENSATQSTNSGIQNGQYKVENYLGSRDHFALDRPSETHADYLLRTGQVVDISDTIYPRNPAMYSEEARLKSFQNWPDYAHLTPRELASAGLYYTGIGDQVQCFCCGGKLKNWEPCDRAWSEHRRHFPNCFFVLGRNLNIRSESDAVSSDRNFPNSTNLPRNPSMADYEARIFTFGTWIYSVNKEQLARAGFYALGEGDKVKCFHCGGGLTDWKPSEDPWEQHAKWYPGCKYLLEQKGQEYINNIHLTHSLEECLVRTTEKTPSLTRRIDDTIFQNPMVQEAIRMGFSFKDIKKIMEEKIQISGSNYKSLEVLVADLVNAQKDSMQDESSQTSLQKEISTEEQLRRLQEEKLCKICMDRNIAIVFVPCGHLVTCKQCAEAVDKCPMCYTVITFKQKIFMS
T5 sequence (P65502 whole entry): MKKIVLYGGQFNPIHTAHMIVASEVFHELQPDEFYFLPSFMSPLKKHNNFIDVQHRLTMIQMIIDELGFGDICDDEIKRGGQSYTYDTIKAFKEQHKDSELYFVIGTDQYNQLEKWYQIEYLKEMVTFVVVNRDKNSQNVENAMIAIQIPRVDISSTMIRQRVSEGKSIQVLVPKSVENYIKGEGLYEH
Chain of Melanocortin receptor 4 (P32245 whole entry): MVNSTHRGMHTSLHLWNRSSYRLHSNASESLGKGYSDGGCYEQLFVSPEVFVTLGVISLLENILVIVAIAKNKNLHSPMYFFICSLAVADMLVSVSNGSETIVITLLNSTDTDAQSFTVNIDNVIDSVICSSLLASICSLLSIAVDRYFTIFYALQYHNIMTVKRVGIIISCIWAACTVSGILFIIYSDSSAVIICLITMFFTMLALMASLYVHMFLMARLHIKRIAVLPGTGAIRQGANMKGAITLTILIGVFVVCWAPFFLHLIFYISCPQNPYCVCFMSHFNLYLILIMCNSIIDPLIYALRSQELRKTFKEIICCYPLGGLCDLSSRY
Chain of Ras and Rab interactor 1/Tyrosine-protein kinase ABL1 (P00519 whole entry): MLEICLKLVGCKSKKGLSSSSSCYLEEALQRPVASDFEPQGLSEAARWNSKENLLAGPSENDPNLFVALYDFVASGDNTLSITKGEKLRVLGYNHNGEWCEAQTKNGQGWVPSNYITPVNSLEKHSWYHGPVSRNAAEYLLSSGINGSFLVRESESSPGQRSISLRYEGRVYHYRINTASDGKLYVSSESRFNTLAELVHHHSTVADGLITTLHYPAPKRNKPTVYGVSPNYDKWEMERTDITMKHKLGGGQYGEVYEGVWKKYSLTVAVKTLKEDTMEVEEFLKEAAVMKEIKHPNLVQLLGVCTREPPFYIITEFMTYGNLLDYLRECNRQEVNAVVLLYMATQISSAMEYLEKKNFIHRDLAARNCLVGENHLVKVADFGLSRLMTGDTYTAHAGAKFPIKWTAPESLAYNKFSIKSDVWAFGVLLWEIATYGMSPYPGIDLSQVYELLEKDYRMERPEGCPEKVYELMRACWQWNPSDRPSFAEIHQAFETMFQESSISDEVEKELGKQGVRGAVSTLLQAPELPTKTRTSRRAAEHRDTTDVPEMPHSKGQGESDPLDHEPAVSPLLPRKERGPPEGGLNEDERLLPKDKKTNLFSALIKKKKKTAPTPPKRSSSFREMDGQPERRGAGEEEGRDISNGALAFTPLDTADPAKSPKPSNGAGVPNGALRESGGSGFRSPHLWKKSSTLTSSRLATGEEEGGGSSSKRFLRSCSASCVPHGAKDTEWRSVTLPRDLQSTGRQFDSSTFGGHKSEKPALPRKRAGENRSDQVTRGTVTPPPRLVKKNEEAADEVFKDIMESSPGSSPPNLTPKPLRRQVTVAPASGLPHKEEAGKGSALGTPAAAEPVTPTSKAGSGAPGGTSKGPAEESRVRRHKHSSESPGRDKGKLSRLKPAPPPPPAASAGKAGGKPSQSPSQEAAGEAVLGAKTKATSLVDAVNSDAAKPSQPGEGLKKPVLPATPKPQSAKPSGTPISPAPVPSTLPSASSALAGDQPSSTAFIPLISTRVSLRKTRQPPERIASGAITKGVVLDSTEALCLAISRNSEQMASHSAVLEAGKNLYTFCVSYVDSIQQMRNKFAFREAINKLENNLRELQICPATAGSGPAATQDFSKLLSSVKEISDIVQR
Chain of Ras and Rab interactor 1/Tyrosine-protein kinase ABL1 (Q13671 whole entry): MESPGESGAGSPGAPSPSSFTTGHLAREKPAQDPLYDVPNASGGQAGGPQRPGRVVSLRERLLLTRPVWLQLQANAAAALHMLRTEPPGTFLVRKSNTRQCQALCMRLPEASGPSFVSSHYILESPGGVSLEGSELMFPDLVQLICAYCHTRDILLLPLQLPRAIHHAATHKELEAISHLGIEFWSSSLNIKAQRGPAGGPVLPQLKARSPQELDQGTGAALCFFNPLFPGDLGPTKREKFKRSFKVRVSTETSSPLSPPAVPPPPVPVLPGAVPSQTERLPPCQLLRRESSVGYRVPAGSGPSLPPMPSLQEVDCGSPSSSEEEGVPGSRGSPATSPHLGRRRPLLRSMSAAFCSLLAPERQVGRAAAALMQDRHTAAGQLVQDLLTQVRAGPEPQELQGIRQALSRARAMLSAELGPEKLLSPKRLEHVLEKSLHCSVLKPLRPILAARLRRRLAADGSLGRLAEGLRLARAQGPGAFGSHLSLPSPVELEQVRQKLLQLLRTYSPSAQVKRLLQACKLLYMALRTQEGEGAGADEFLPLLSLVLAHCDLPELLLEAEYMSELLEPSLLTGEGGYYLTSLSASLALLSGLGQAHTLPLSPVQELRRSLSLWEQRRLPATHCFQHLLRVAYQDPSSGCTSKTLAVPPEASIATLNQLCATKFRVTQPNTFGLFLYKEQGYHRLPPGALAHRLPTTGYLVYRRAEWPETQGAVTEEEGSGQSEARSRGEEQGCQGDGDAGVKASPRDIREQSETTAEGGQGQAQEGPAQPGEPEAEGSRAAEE
Chain of Paired box protein Pax-8 (Q06710 whole entry): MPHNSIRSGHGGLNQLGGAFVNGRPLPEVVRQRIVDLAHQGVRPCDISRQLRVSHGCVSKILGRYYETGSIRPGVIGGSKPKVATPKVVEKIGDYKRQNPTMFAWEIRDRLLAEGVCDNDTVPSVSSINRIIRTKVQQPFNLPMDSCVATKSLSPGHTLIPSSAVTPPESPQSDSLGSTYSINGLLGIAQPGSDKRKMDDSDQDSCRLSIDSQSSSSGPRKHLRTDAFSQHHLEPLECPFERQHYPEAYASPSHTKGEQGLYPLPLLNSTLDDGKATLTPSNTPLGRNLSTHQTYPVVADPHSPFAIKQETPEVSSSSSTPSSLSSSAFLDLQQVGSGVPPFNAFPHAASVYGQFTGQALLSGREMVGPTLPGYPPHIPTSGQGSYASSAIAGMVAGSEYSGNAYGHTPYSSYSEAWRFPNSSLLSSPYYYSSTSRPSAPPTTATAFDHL

COc1cc(O)c(NC(C)=O)c2nonc12
IC50 (SUMO-activating enzyme [1]): 74.2 µM (active) | IC50 [2]: 8.37 µM (active) | IC50 (SUMO-activating enzyme [3]): 7.24 µM (active) | IC50 [4]: 14.6 µM (active)

COc1cc(/C=N/Nc2nc(Nc3ccc(C)cc3)nc(-n3nc(C)cc3C)n2)cc(OC)c1OC
IC50 (Melanocortin receptor 4): > 64.6 µM (inactive) | IC50 [5]: > 64.6 µM (inactive) | EC50 [6]: 11 µM (active) | EC50 (Streptococcus): 15.5 µM (active) | EC50 (Streptokinase A): > 150 µM (not active) | IC50 [7]: > 100 µM (not active) | EC50 [8]: 0.608 µM (active) | AC50 [9]: 38.4 µM (active) | IC50 [10]: > 100 µM (inactive) | EC50 [11]: 1.82 µM (active) | AC50 (Paired box protein Pax-8): 6.57 µM (active)

Nc1cc(O)c2[nH]cnc2n1
IC50 [12]: 33.6 µM (inactive)

C[C@H](CO)N1C[C@H](C)[C@H](CN(C)Cc2ccc(C(F)(F)F)cc2)Oc2c(NC(=O)c3ccncc3)cccc2C1=O
AC50 [13]: 39 µM (inactive)

O=c1/c(=C\c2ccc(O)cc2)sc2n1C(c1ccccc1)C(c1ccccc1)=NN=2 (centres undefined)
IC50 [14]: 32.1 µM (active) | AC50 (Cytochrome P450 1A2): 4.47 µM (inconclusive) | IC50 [15]: 13.7 µM (active) | CC50 [16]: 33 µM (active)

Nc1nc2nn[nH]c2c(=O)[nH]1 [8-AZAGUANINE]
EC50 [17]: > 91.2 µM (inactive) | AC50 [18]: 0.875 µM (active)

O=C(O)CN1CCN(CC(=O)O)CCN(CC(=O)O)CCN(CC(=O)O)CC1 [TETRAXETAN]
EC50 [19]: > 20 µM (inactive)
